Assay results reported in ChEMBL document CHEMBL1155997, “Design and synthesis of novel substituted quinazoline derivatives as antileishmanial agents” (Bioorg Med Chem Lett, 2009).
In brackets after ≈: the same amount, converted by molar mass. Activity calls are given as the source filed them. The rule behind the calls is not given here.

What was measured:
Leishmania donovani [1] = test: Antileishmanial activity against Leishmania donovani in luciferase-promastigote system at 10 ug/ml; type: functional
Leishmania donovani [2] = test: Antileishmanial activity against Leishmania donovani in luciferase-amastigote system; type: functional, organism-based

Row | IC50 (Leishmania donovani [2]) [µg/mL] | Molecule | inhibition at 10 µg/mL (Leishmania donovani [1]) [%] | inhibition (Leishmania donovani [1])
1 | – | c1ccc(-c2nc(N3CCCC3)nc3c2CCc2ccccc2-3)cc1 | 74.7 | –
2 | – | c1ccc(-c2nc(N3CCOCC3)nc3c2CCc2ccccc2-3)cc1 | 71.5 | –
3 | – | c1ccc(C2NC(N3CCCC3)=NC3=C2CCc2ccccc23)cc1 (configuration not stated) | 99.8 | –
4 | – | Fc1ccc(-c2nc(N3CCCC3)nc3c2CCc2ccccc2-3)cc1 | 61.8 | –
5 | – | N=C(N)c1ccc(OCCCCCOc2ccc(C(=N)N)cc2)cc1 [PENTAMIDINE] | 100 | –
6 | – | c1ccc(-c2nc(N3CCCCC3)nc3c2CCc2ccccc2-3)cc1 | 91.8 | –
7 | – | Clc1ccc(-c2nc(N3CCN(c4ccccn4)CC3)nc3c2CCc2ccccc2-3)c(Cl)c1 | 15.7 | –
8 | – | Clc1ccc(C2NC(N3CCCC3)=NC3=C2CCc2ccccc23)c(Cl)c1 (configuration not stated) | 99.8 | –
9 | – | D-gluconic acid, 2,4:2',4'-O-[oxybis-oxidostibylidyne]bis-, trisodium salt, nonahydrate | – | inactive
10 | – | Clc1ccc(-c2nc(N3CCCCC3)nc3c2CCc2ccccc2-3)c(Cl)c1 | 95.2 | –
11 | 2.65 (≈ 5.81 µM) | Clc1ccc(C2NC(N3CCN(c4ccccn4)CC3)=NC3=C2CCc2ccccc23)cc1 (configuration not stated) | 99.9 | –
12 | – | Clc1ccc(-c2nc(N3CCCC3)nc3c2CCc2ccccc2-3)c(Cl)c1 | 77.9 | –
13 | – | Clc1ccc(-c2nc(N3CCN(c4ccccn4)CC3)nc3c2CCc2ccccc2-3)cc1 | 51.4 | –
14 | 6.33 (≈ 12.9 µM) | Clc1ccc(C2NC(N3CCN(c4ccccn4)CC3)=NC3=C2CCc2ccccc23)c(Cl)c1 (configuration not stated) | 99.9 | –
15 | – | Fc1ccc(-c2nc(N3CCCCC3)nc3c2CCc2ccccc2-3)cc1 | 47.8 | –
16 | – | Fc1ccc(-c2nc(N3CCN(c4ccccn4)CC3)nc3c2CCc2ccccc2-3)cc1 | 44.9 | –
17 | – | Clc1ccc(C2NC(N3CCCCC3)=NC3=C2CCc2ccccc23)cc1 (configuration not stated) | 99.6 | –

Row | IC50 (Leishmania donovani [2]) [µg/mL] | Molecule | inhibition at 10 µg/mL (Leishmania donovani [1]) [%] | inhibition (Leishmania donovani [1])
18 | – | Clc1ccc(-c2nc(N3CCOCC3)nc3c2CCc2ccccc2-3)c(Cl)c1 | 93.1 | –
19 | – | c1ccc(-c2nc(N3CCN(c4ccccn4)CC3)nc3c2CCc2ccccc2-3)cc1 | 62.2 | –
20 | – | c1ccc(C2NC(N3CCN(c4ccccn4)CC3)=NC3=C2CCc2ccccc23)cc1 (configuration not stated) | 99.4 | –
21 | – | Clc1ccc(C2NC(N3CCOCC3)=NC3=C2CCc2ccccc23)c(Cl)c1 (configuration not stated) | 99.7 | –
22 | – | Clc1ccc(-c2nc(N3CCCCC3)nc3c2CCc2ccccc2-3)cc1 | 53.5 | –
23 | 4.07 (≈ 11.7 µM) | Fc1ccc(C2NC(N3CCCC3)=NC3=C2CCc2ccccc23)cc1 (configuration not stated) | 99.9 | –
24 | – | Clc1ccc(-c2nc(N3CCOCC3)nc3c2CCc2ccccc2-3)cc1 | 74.8 | –
25 | 3.48 (≈ 10.1 µM) | c1ccc(C2NC(N3CCCCC3)=NC3=C2CCc2ccccc23)cc1 (configuration not stated) | 99.8 | –
26 | 8.95 (≈ 24.6 µM) | Clc1ccc(C2NC(N3CCCC3)=NC3=C2CCc2ccccc23)cc1 (configuration not stated) | 96.3 | –
27 | – | Fc1ccc(-c2nc(N3CCOCC3)nc3c2CCc2ccccc2-3)cc1 | 64.8 | –
28 | 5.2 (≈ 13.7 µM) | Clc1ccc(C2NC(N3CCOCC3)=NC3=C2CCc2ccccc23)cc1 (configuration not stated) | 98.7 | –
29 | – | Fc1ccc(C2NC(N3CCOCC3)=NC3=C2CCc2ccccc23)cc1 (configuration not stated) | 99.6 | –
30 | 3.22 (≈ 8.91 µM) | Fc1ccc(C2NC(N3CCCCC3)=NC3=C2CCc2ccccc23)cc1 (configuration not stated) | 99.9 | –
31 | – | Clc1ccc(-c2nc(N3CCCC3)nc3c2CCc2ccccc2-3)cc1 | 58.3 | –
32 | – | Clc1ccc(C2NC(N3CCCCC3)=NC3=C2CCc2ccccc23)c(Cl)c1 (configuration not stated) | 99.7 | –
33 | 3.58 (≈ 8.14 µM) | Fc1ccc(C2NC(N3CCN(c4ccccn4)CC3)=NC3=C2CCc2ccccc23)cc1 (configuration not stated) | 68.2 | –
34 | – | c1ccc(C2NC(N3CCOCC3)=NC3=C2CCc2ccccc23)cc1 (configuration not stated) | 99.9 | –
